{"source": "patent US11607404B2", "about": "“Combinations of RAD51 and PARP inhibitors” (Cyteir Therapeutics, Inc., priority 2019, dated 2023)", "assay_in_all_cases": "Tumor growth inhibition, subcutaneous engrafted tumor model", "format_in_all_cases": "in vivo, mice", "key": {"HBCx1 model": {"test_system": "HBCx1 model", "conditions": "HRD Positive, RAD51 High, BRCA WT, PALB2 WT, 67A 80 mg/kg QD, olaparib 100 mg/kg QD, combo both", "protocol": "(§1) Immunodeficient mice were subcutaneously engrafted in the rear flank with the tumor cells. The tumors were allowed to grow to a size of about 100 to about 200 mm^3 prior to being randomized and grouped into treatment arms. For models […] through […] the four treatment arms were vehicle, Compound 67A at 80 mg/kg QD, olaparib at 100 mg/kg QD, and Compound 67A+Olaparib at 80 mg/kg QD and 100 mg/kg QD, respectively. For models J000101173 through TM00091 the treatment arms were vehicle, Compound 67A at 40 mg/kg QD, olaparib at 50 mg/kg QD, and Compound 67A+Olaparib at 40 mg/kg QD and 50 mg/kg QD, respectively. The tumors were measured either once weekly or twice weekly.\n(§2) Percent Tumor Growth Inhibition (% TGI) was calculated by taking the mean volume of each of the treatment arms, and comparing the treatment arms to the vehicle arms using the following equation"}, "HBCx11 model": {"test_system": "HBCx11 model", "conditions": "HRD Positive, RAD51 High, BRCA1 Mut, PALB2 WT, 67A 80 mg/kg QD, olaparib 100 mg/kg QD, combo both", "protocol": "as §1, §2"}, "HBCx12B model": {"test_system": "HBCx12B model", "conditions": "HRD Positive, RAD51 High, BRCA1 Meth, PALB2 WT, 67A 80 mg/kg QD, olaparib 100 mg/kg QD, combo both", "protocol": "as §1, §2"}, "HBCx16 model": {"test_system": "HBCx16 model", "conditions": "HRD Positive, RAD51 High, BRCA1 Meth, PALB2 WT, 67A 80 mg/kg QD, olaparib 100 mg/kg QD, combo both", "protocol": "as §1, §2"}, "HBCx17 model": {"test_system": "HBCx17 model", "conditions": "HRD Positive, RAD51 High, BRCA2 Mut, PALB2 WT, 67A 80 mg/kg QD, olaparib 100 mg/kg QD, combo both", "protocol": "as §1, §2"}, "HBCx27 model": {"test_system": "HBCx27 model", "conditions": "HRD Negative, RAD51 High, BRCA WT, PALB2 WT, 67A 80 mg/kg QD, olaparib 100 mg/kg QD, combo both", "protocol": "as §1, §2"}, "J000100675 model": {"test_system": "J000100675 model", "conditions": "HRD Negative, RAD51 Low, BRCA WT, PALB2 WT, 67A 40 mg/kg QD, olaparib 50 mg/kg QD, combo both", "protocol": "as §1, §2"}, "J000101173 model": {"test_system": "J000101173 model", "conditions": "HRD Positive, RAD51 Low, BRCA WT, PALB2 WT, 67A 40 mg/kg QD, olaparib 50 mg/kg QD, combo both", "protocol": "as §1, §2"}, "TM000113 model": {"test_system": "TM000113 model", "conditions": "HRD Negative, RAD51 Low, BRCA WT, PALB2 WT, 67A 40 mg/kg QD, olaparib 50 mg/kg QD, combo both", "protocol": "as §1, §2"}, "TM00090 model": {"test_system": "TM00090 model", "conditions": "HRD Positive, RAD51 Low, BRCA1 Meth, BRCA2 Mut, PALB2 WT, 67A 40 mg/kg QD, olaparib 50 mg/kg QD, combo both", "protocol": "as §1, §2"}, "TM00091 model": {"test_system": "TM00091 model", "conditions": "HRD Positive, RAD51 High, BRCA1 Mut, PALB2 WT, 67A 40 mg/kg QD, olaparib 50 mg/kg QD, combo both", "protocol": "as §1, §2"}, "TM00096 model": {"test_system": "TM00096 model", "conditions": "HRD Positive, RAD51 Low, BRCA WT, PALB2 WT, 67A 40 mg/kg QD, olaparib 50 mg/kg QD, combo both", "protocol": "as §1, §2"}, "TM01079 model": {"test_system": "TM01079 model", "conditions": "HRD Positive, RAD51 Low, BRCA1 Meth, PALB2 WT, 67A 40 mg/kg QD, olaparib 50 mg/kg QD, combo both", "protocol": "as §1, §2"}}, "data": [{"smiles": "CC(C)OC(=O)Nc1ccc(-c2cnc([C@H]3CC[C@H](NC(=O)OC(C)C)CC3)s2)c(S(=O)(=O)NC(C)(C)C)c1", "note": "[Compound 67A, trans-isopropylN-[3-(tert-butylsulfamoyl)-4-[2-[4-(isopropoxycarbonylamino)cyclohexyl]thiazol-5-yl]phenyl]carbamate]", "values": [{"measurement": "% TGI", "setting": "HBCx1 model", "result": 28.75, "unit": "%"}, {"measurement": "% TGI", "setting": "HBCx11 model", "result": 23.39, "unit": "%"}, {"measurement": "% TGI", "setting": "HBCx12B model", "result": "−3.27", "unit": "%"}, {"measurement": "% TGI", "setting": "HBCx16 model", "result": "−22.45", "unit": "%"}, {"measurement": "% TGI", "setting": "HBCx17 model", "result": "−51.13", "unit": "%"}, {"measurement": "% TGI", "setting": "HBCx27 model", "result": 13.14, "unit": "%"}, {"measurement": "% TGI", "setting": "J000100675 model", "result": 36.69, "unit": "%"}, {"measurement": "% TGI", "setting": "J000101173 model", "result": 19.87, "unit": "%"}, {"measurement": "% TGI", "setting": "TM000113 model", "result": 7.24, "unit": "%"}, {"measurement": "% TGI", "setting": "TM00090 model", "result": 51.82, "unit": "%"}, {"measurement": "% TGI", "setting": "TM00091 model", "result": 27, "unit": "%"}, {"measurement": "% TGI", "setting": "TM00096 model", "result": "−25.4", "unit": "%"}, {"measurement": "% TGI", "setting": "TM01079 model", "result": 26.73, "unit": "%"}]}]}
